Source: patent publication US20230159453A1 (COCRYSTAL PHARMA, INC., priority 2020, published 2023)
“And” between values parts separate entries of the source, which are not always exact repeats. Equal values may be shown once.

biological target: SARS2 protease (Severe acute respiratory syndrome coronavirus 2, UniProt P0DTD1); experiment: SARS-CoV-2 protease inhibition assay (SARS2 FRET protease assay); format: biochemical; conditions: SARS-CoV-2 protease 25 nM, FRET, peptide substrate 1.3 μM, 30 minutes at 30° C., compounds 20 μM to 1.0 nM; read-out: IC50

Row | SMILES | IC50
1 | CCOP(=O)(OCC)C(O)[C@H](CCC(=O)N1CCOc2ccccc2C1)NC(=O)[C@H](CC1CCCCC1)NC(=O)N1CCc2ccccc21 (stereo partly drawn) [Compound C21, Diethyl ((2S)-2-((S)-3-cyclohexyl-2-(indoline-1-carboxamido)propanamido)-5-(2,3-dihydrobenzo[f][1,4]oxazepin-4(5H)-yl)-1-hydroxy-5-oxopentyl)phosphonate] | > 200 µM
2 | CN(C)C(=O)CC[C@@H](C=O)NC(=O)C(CC(C)(C)C)NC(=O)OCc1cccc(Cl)c1 (stereo partly drawn) [Compound C22, 3-Chlorobenzyl (1-(((S)-5-(dimethylamino)-1,5-dioxopentan-2-yl)amino)-4,4-dimethyl-1-oxopentan-2-yl)carbamate] | 3.8 µM
3 | CC(C)(C)OC(=O)N1CCC(OC(=O)N[C@@H](CC2CCCCC2)C(=O)N[C@H](C=O)CCC(=O)N2CCOc3ccccc3C2)CC1 [Compound C23, Tert-butyl 4-((((S)-3-cyclohexyl-1-(((S)-5-(2,3-dihydrobenzo[f][1, 4]oxazepin-4(5H)-yl)-1,5-dioxopentan-2-yl)amino)-1-oxopropan-2-yl)carbamoyl)oxy)piperidine-1-carboxylate] | > 200 µM
4 | CCCCCCCOC(=O)N[C@@H](CC1CCCCC1)C(=O)N[C@H](C=O)CCC(=O)N1CCOc2ccccc2C1 [Compound C24, Heptyl ((S)-3-cyclohexyl-1-(((S)-5-(2,3-dihydrobenzo[f][1,4]oxazepin-4(5H)-yl)-1,5-dioxopentan-2-yl)amino)-1-oxopropan-2-yl)carbamate] | > 200 µM
5 | CC(OC(=O)N[C@@H](CC1CCCCC1)C(=O)N[C@H](C=O)CCC(=O)N(C)CCc1ccccc1)c1cccc(Cl)c1 (stereo partly shown) [Compound C25] | 11.1 µM
6 | CCCCCCOC(=O)N[C@@H](CC1CCCCC1)C(=O)N[C@H](C=O)CCC(=O)N1CCOc2ccccc2C1 [Compound C26, Hexyl ((S)-3-cyclohexyl-1-(((S)-5-(2,3-dihydrobenzo[f][1,4]oxazepin-4(5H)-yl)-1,5-dioxopentan-2-yl)amino)-1-oxopropan-2-yl)carbamate] | > 200 µM
7 | O=C[C@H](CC1CCN(CCc2ccccc2)C1=O)NC(=O)[C@H](CC1CCCCC1)NC(=O)OCc1cccc(Cl)c1 (stereo partly drawn) [Compound C27, 3-Chlorobenzyl ((2S)-3-cyclohexyl-1-oxo-1-((1-oxo-3-(2-oxo-1-phenethylpyrrolidin-3-yl)propan-2-yl)amino)propan-2-yl) carbamate] | > 200 µM
8 | CCOP(=O)(OCC)C(O)[C@H](CCC(=O)N1CCOc2ccccc2C1)NC(=O)[C@H](CC1CCCCC1)NC(=O)OC1CCN(S(C)(=O)=O)CC1 (stereo partly drawn) [Compound C28, 1-(Methylsulfonyl) piperidin-4-yl((2S)-3-cyclohexyl-1-(((2S)-1-(diethoxyphosphoryl)-5-(2,3-dihydrobenzo[f][1,4]oxazepin-4(5H)-yl)-1-hydroxy-5-oxopentan-2-yl)amino)-1-oxopropan-2-yl)carbamate] | > 200 µM
9 | CC(C[C@@H](C=O)NC(=O)[C@H](CC1CCCCC1)NC(=O)OCc1cccc(Cl)c1)C(=O)N1CCOc2ccccc2C1 (stereo partly drawn) [Compound C29, 3-Chlorobenzyl ((2S)-3-cyclohexyl-1-(((2S)-5-(2,3-dihydrobenzo[f][1,4]oxazepin-4(5H)-yl)-4-methyl-1,5-dioxopentan-2-yl)amino)-1-oxopropan-2-yl)carbamate] | > 200 µM
10 | CS(=O)(=O)N1CCC(OC(=O)N[C@@H](CC2CCCCC2)C(=O)N[C@H](C=O)CCC(=O)N2CCOc3ccccc3C2)CC1 [Compound C30, 1-(Methylsulfonyl) piperidin-4-yl((S)-3-cyclohexyl-1-(((S)-5-(2,3-dihydrobenzo[f][1,4]oxazepin-4(5H)-yl)-1,5-dioxopentan-2-yl)amino)-1-oxopropan-2-yl)carbamate] | 42.3 µM
11 | CCOP(=O)(OCC)C(O)[C@H](CCC(=O)N1CCOc2ccccc2C1)NC(=O)[C@H](CC1CCCCC1)NC(=O)N(C)Cc1cccc(Cl)c1 (stereo partly drawn) [Compound C31, Diethyl ((2S)-2-((S)-2-(3-(3-chlorobenzyl)-3-methylureido)-3-cyclohexylpropanamido)-5-(2,3-dihydrobenzo[f][1,4]oxazepin-4(5H)-yl)-1-hydroxy-5-oxopentyl)phosphonate] | > 200 µM
12 | CC(=O)N1CCC2(CC1)CC(CC(C=O)NC(=O)[C@H](CC1CCCCC1)NC(=O)OCc1cccc(Cl)c1)C(=O)N2 (stereo partly drawn) [Compound C32, 3-Chlorobenzyl ((2S)-1-((1-(8-acetyl-2-oxo-1,8-diazaspiro[4.5]decan-3-yl)-3-oxopropan-2-yl)amino)-3-cyclohexyl-1-oxopropan-2-yl)carbamate] | 0.023 µM
13 | O=C[C@H](CCC(=O)NC1(Cc2ccccc2)CC1)NC(=O)[C@H](CC1CCCCC1)NC(=O)OCc1cccc(Cl)c1 [Compound C33, 3-Chlorobenzyl ((S)-1-(((S)-5-((1-benzylcyclopropyl)amino)-1,5-dioxopentan-2-yl)amino)-3-cyclohexyl-1-oxopropan-2-yl)carbamate] | > 200 µM
14 | CC(C)C[C@H](NC(=O)OC1CCN(C(=O)OC(C)(C)C)CC1)C(=O)N[C@H](C=O)C[C@@H]1CCNC1=O [Compound C34, Tert-butyl 4-((((S)-4-methyl-1-oxo-1-(((S)-1-oxo-3-((S)-2-oxopyrrolidin-3-yl)propan-2-yl)amino)pentan-2-yl)carbamoyl)oxy) piperidine-1-carboxylate] | 0.1 µM
15 | CN(Cc1cccc(Cl)c1)C(=O)N[C@@H](CC1CCCCC1)C(=O)N[C@H](C=O)CCC(=O)N1CCOc2ccccc2C1 [Compound C35, (S)-2-(3-(3-Chlorobenzyl)-3-methylureido)-3-cyclohexyl-N—((S)-5-(2,3-dihydrobenzo[f][1,4]oxazepin-4(5H)-yl)-1,5-dioxopentan-2-yl)propanamide] | 18.9 µM
16 | CCOP(=O)(OCC)C(O)[C@H](CC1CCNC1=O)NC(=O)[C@H](Cc1ccccc1)NC(=O)OCc1cccc(Cl)c1 (stereo partly shown) [Compound C36] | 2.5 µM
17 | CC(C)C[C@H](NC(=O)N(Cc1ccccc1)C1CCN(C(=O)OC(C)(C)C)CC1)C(=O)N[C@H](C=O)C[C@@H]1CCNC1=O [Compound C37, Tert-butyl 4-(1-benzyl-3-((S)-4-methyl-1-oxo-1-(((S)-1-oxo-3-((S)-2-oxopyrrolidin-3-yl)propan-2-yl)amino)pentan-2-yl)ureido)piperidine-1-carboxylate] | 0.137 µM and 0.262 µM
18 | CC(C)C[C@H](NC(=O)OC(Cc1ccccc1)c1ccccc1)C(=O)N[C@H](C=O)C[C@@H]1CCNC1=O (stereo partly drawn) [Compound C38, 1,2-Diphenylethyl ((S)-4-methyl-1-oxo-1-(((S)-1-oxo-3-((S)-2-oxopyrrolidin-3-yl)propan-2-yl)amino)pentan-2-yl)carbamate] | 0.016 µM
19 | CC(C)C[C@H](NC(=O)OC(C)Cc1ccccc1)C(=O)N[C@H](C=O)C[C@@H]1CCNC1=O (stereo partly drawn) [Compound C39, 1-Phenylpropan-2-yl ((S)-4-methyl-1-oxo-1-(((S)-1-oxo-3-((S)-2-oxopyrrolidin-3-yl)propan-2-yl)amino)pentan-2-yl)carbamate] | 0.153 µM
20 | CC(C)C[C@H](NC(=O)N(Cc1ccccc1)C1CCN(C(=O)OC(C)(C)C)CC1)C(=O)N[C@@H](C[C@@H]1CCNC1=O)C(O)S(=O)(=O)O (stereo partly drawn) [Compound C40, (2S)-2-((S)-2-(3-benzyl-3-(1-(tert-butoxycarbonyl)piperidin-4-yl)ureido)-4-methylpentanamido)-1-hydroxy-3-((S)-2-oxopyrrolidin-3-yl)propane-1-sulfonate] | 0.173 µM and 0.221 µM
21 | CCOP(=O)(OCC)C(O)C(CC1CC(Cc2ccccc2)NC1=O)NC(=O)[C@H](CC1CCCCC1)NC(=O)OCc1cccc(Cl)c1 (stereo partly drawn) [Compound C41, 3-Chlorobenzyl ((2S)-1-((3-(5-benzyl-2-oxopyrrolidin-3-yl)-1-(diethoxyphosphoryl)-1-hydroxypropan-2-yl)amino)-3-cyclohexyl-1-oxopropan-2-yl)carbamate] | 0.308 µM
22 | COc1cccc(CC2(OC(=O)N[C@@H](CC(C)C)C(=O)N[C@H](C=O)C[C@@H]3CCNC3=O)CC2)c1 [Compound C42, 1-(3-Methoxybenzyl)cyclopropyl ((S)-4-methyl-1-oxo-1-(((S)-1-oxo-3-((S)-2-oxopyrrolidin-3-yl)propan-2-yl)amino)pentan-2-yl)carbamate] | 0.356 µM
23 | CC(C)C[C@H](NC(=O)OC1CCCC1Cc1ccccc1)C(=O)N[C@H](C=O)C[C@@H]1CCNC1=O (stereo partly drawn) [Compound C43, 2-benzylcyclopentyl ((S)-4-methyl-1-oxo-1-(((S)-1-oxo-3-((S)-2-oxopyrrolidin-3-yl)propan-2-yl)amino)pentan-2-yl) carbamate] | 0.056 µM
24 | CC(C)C[C@H](NC(=O)OC1(Cc2ccccc2)CC1)C(=O)N[C@H](C=O)C[C@@H]1CCNC1=O [Compound C44, 1-Benzylcyclopropyl ((S)-4-methyl-1-oxo-1-(((S)-1-oxo-3-((S)-2-oxopyrrolidin-3-yl)propan-2-yl)amino)pentan-2-yl) carbamate] | 0.331 µM
25 | CC(C)C[C@H](NC(=O)OC1(Cc2cccc(Cl)c2)CC1)C(=O)N[C@H](C=O)C[C@@H]1CCNC1=O [Compound C45, 1-(3-Chlorobenzyl) cyclopropyl ((S)-4-methyl-1-oxo-1-(((S)-1-oxo-3-((S)-2-oxopyrrolidin-3-yl)propan-2-yl)amino)pentan-2-yl)carbamate] | 0.304 µM
26 | CC(C)C[C@H](NC(=O)OC(C)(C)Cc1ccccc1)C(=O)N[C@H](C=O)C[C@@H]1CCNC1=O [Compound C46, 2-Methyl-1-phenylpropan-2-yl ((S)-4-methyl-1-oxo-1-(((S)-1-oxo-3-((S)-2-oxopyrrolidin-3-yl)propan-2-yl)amino)pentan-2-yl) carbamate] | 1.38 µM
27 | CC(C)C[C@H](NC(=O)OC1(Cc2ccccc2)CC1)C(=O)N[C@@H](C[C@@H]1CCNC1=O)C(O)S(=O)(=O)O (stereo partly drawn) [Compound C48, (2S)-2-((S)-2-(((1-Benzylcyclopropoxy)carbonyl)amino)-4-methylpentanamido)-1-hydroxy-3-((S)-2-oxopyrrolidin-3-yl) propane-1-sulfonate] | 0.241 µM
28 | COc1cccc(CC2(OC(=O)N[C@@H](CC(C)C)C(=O)N[C@@H](C[C@@H]3CCNC3=O)C(O)S(=O)(=O)O)CC2)c1 (stereo partly drawn) [Compound C49, (2S)-1-Hydroxy-2-((S)-2-(((1-(3-methoxybenzyl)cyclopropoxy)carbonyl)amino)-4-methylpentanamido)-3-((S)-2-oxopyrrolidin-3-yl)propane-1-sulfonate] | 0.266 µM
